The results in this text go back to PubChem BioAssay (NCI).

Values joined by “and” are separate entries in the source; they are usually repeats but may differ in a detail not shown here. Equal values may be shown once.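 Where inhibition never reached the appropriate level, the endpoint shown equals the highest concentration tested. Otherwise, values were interpolated linearly from a five-concentration, 48-hour dose response in 96-well plates. At the GI50, growth is halved. TGI is the concentration that stops growth completely.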

Holding throughout (test): inhibition of tumour cell growth, NCI panel, 48 h
Assay [1] deals with SK-MEL-2 melanoma.
In assay [2] the test system is HOP-62 NSCLC.
Assay [3] concerns RPMI-8226 leukemia.
Assay [4] relates to CAKI-1 renal.
In assay [5] the test system is RXF 393 renal.
Assay [6] concerns IGROV1 ovarian.
Assay [7] concerns EKVX NSCLC.
Assay [8] has as its system NCI-H460 lung.
The test system of assay [9] is SR leukemia.
In assay [10] the test system is MDA-MB-435.
For assay [11], the system named is DU-145 prostate.
For assay [12], the system named is BT-549 breast.

With `O=C1C(Cl)C(c2ccccc2)N1n1cnc2ccccc2c1=O` (stereo unspecified), the TGI in assay [1], in [2], in [3], in assay [4], in assay [5] and in assay [6] was over 100 µM in each case. The TGI in [7], in assay [8] and in [9] was over 100 µM throughout.

Turning to `C/C(=C1/CCCC2(N=NCC2c2ccccc2)C1=O)c1ccccc1` (stereo unspecified), the TGI in assay [1] is 42.1 µM; in [3] it was over 100 µM; in assay [5] it was 79.5 µM; in assay [6], over 100 µM; in assay [7], over 100 µM; in [8], over 100 µM. The TGI in [9] was determined as 51.2 µM.

In the case of `CC12CCC(C(=O)OC1=O)C2(C)C` (stereo unspecified), the TGI in assay [1], in assay [10], in assay [2], in [11], in [3] and in assay [5] was over 100 µM throughout. Moreover, the TGI in assay [6] was over 100 µM; in [8], over 100 µM; in assay [9], 64.3 µM.

Take `Cc1ccc2nc(-c3ccc(N)c(I)c3)sc2c1`: the TGI was 40.8 µM in assay [1]; 79.1 µM in assay [10]; over 100 µM in assay [2]; over 100 µM in assay [12]; over 100 µM in assay [4]; over 100 µM in assay [5]. Further, the TGI is over 100 µM in assay [7], over 100 µM in assay [8] and 19.8 µM in assay [9].

On to `CCOC(=O)C1=C(Nc2cccc(OC)c2)OCC1=O`, for which the TGI in [1], in assay [10], in assay [2], in [11], in [3] and in assay [4] was over 100 µM in each case. Moreover, the TGI in [5], in [6], in [7], in assay [8] and in assay [9] was over 100 µM throughout.

Take `COc1ccc2c(c1)CN1C(=N2)CSC1c1cc([N+](=O)[O-])ccc1Cl` (stereo unspecified): the TGI is over 100 µM in [1]; over 100 µM in assay [10]; over 100 µM in assay [2]; over 100 µM in assay [12]; 72.3 µM in assay [3]; over 100 µM in assay [4]. The TGI in [5], in assay [6], in [7], in assay [8] and in [9] was over 100 µM throughout.

In the case of `OCC1OC(n2cnc3c2NC=NC[C@H]3O)C(O)C1O` (stereo partly specified), the TGI was over 450 µM in [1]; over 419 µM in assay [2]; over 450 µM in [3]; over 450 µM in assay [4]; over 450 µM in assay [5]; over 450 µM in assay [6]. Further, the TGI in assay [7] and in [8] was over 450 µM throughout.

Consider `CN1CCOC1(C)CO` (stereo unspecified), for which the TGI in assay [1], in assay [10], in assay [2], in assay [12], in [3] and in assay [4] was over 100 µM in each case. In addition, the TGI in [5], in assay [6], in assay [7], in assay [8] and in assay [9] was over 100 µM throughout.

On to `CCOC(=O)C(N=Nc1ccc(S(N)(=O)=O)cc1)C(C)=O` (stereo unspecified), for which the TGI in [1], in assay [2], in assay [3], in assay [4], in assay [5] and in [6] was over 100 µM each time. Besides, the TGI in assay [7], in [8] and in assay [9] was over 100 µM each time.

Regarding `COC(=O)C12C3C4C5(C(=O)OC)C(C1C35C(=O)N(C(C)C)C(C)C)C42C(=O)N(C(C)C)C(C)C` (stereo unspecified), the TGI in assay [1], in assay [2], in assay [3], in assay [4], in [5] and in [6] was over 50 µM each time. Further, the TGI in assay [7], in assay [8] and in assay [9] was over 50 µM in each case.

As to `Cc1ccc2c(c1CCCC(C)(C)O)C(=O)C(=O)C(C(C)C)=C2O`, the TGI in [1], in [3], in [4], in [5], in assay [6] and in assay [7] was over 100 µM each time. In addition, the TGI in assay [8] and in [9] was over 100 µM each time.

As to `COc1cc2c(cc1OCc1ccccc1)CNCC2`, the TGI in assay [1], in assay [2], in [4], in assay [5], in assay [6] and in assay [7] was over 100 µM each time. Also, the TGI in assay [8] was over 100 µM.

Consider `CC(=O)OCC1OC(Nc2ncc(-c3ccc(C)cc3)s2)C(OC(C)=O)C(OC(C)=O)C1OC(C)=O` (stereo unspecified), for which the TGI in assay [1] was over 78.2 µM; in assay [2] it was over 100 µM; in assay [3] it was 65.4 µM; in assay [4] it was over 81.1 µM; in [5] it was over 100 µM; in assay [6], over 100 µM. Also, the TGI in [7] was over 100 µM; in assay [8], over 80.9 µM.

In the case of `O=[N+]([O-])c1ccc(-n2nnc(C3=NCCCN3)c2-c2ccc(Cl)cc2)cc1`, the TGI in [1], in [2], in [3], in assay [4], in assay [5] and in assay [6] was over 100 µM each time. Also, the TGI in [7], in assay [8] and in assay [9] was over 100 µM throughout.

For `C=C1C(=O)O[C@H]2[C@H]1[C@@H](OC(=O)C=C(C)C)CC1=C[C@@H](C[C@@]3(C)O[C@@H]23)OC1=O`, the GI50 in assay [1] is 13 µM; in assay [2] it was 60.9 µM; in [3] it was 0.81 µM and 2.61 µM; in assay [6], 14.2 µM; in assay [7] it was 0.839 µM; in [8], 2.27 µM and 14.9 µM. Further, the TGI in [1] is 17.6 µM and 30 µM; in assay [2], 52.2 µM and 187 µM; in assay [3] it was 67.2 µM and 7.16 µM; in assay [4], 9.11 µM; in assay [5], 3.82 µM; in assay [6], 27 µM and 34.4 µM. Besides, the TGI is 10.2 µM and 5.83 µM in [7]; 5.83 µM and 31.8 µM in assay [8].

With `CC(C)CC1[C@@H](OCc2ccccc2)COS(=O)N1Cc1ccccc1` (stereo partly specified), the TGI in assay [1] is over 100 µM; in assay [10] it was over 100 µM; in assay [2], over 100 µM; in [11], over 100 µM; in [3], 51 µM; in [6], over 100 µM. Further, the TGI in [7] is over 100 µM; in assay [9], 73.1 µM.

On to `COc1ccc(C(=O)C(CO)Oc2ccccc2OC)cc1OC` (stereo unspecified), for which the TGI in assay [1], in assay [2], in [3], in assay [4], in assay [6] and in [7] was over 100 µM in each case. In [8], this compound returned a TGI of over 100 µM.

For `CCOC(=O)CC1c2ccc(O)cc2OC(=O)C1c1ccc([N+](=O)[O-])cc1` (stereo unspecified), the TGI in assay [1] was 40.1 µM; in assay [10], 56.1 µM; in [2] it was 68.2 µM; in assay [11] it was over 100 µM; in assay [4], 94.5 µM; in assay [5] it was 64.4 µM. Besides, the TGI in [6] was 60.5 µM; in assay [7], over 100 µM; in assay [8] it was over 100 µM; in assay [9], 77.5 µM.

On to `CC1=C(Br)C(Br)=C(C)S1=O`, for which the TGI in [1] was 32.9 µM; in [10], 30.9 µM; in assay [2], 42.1 µM; in [12], 40.4 µM; in [3] it was 24 µM; in assay [4], 49.9 µM. Besides, the TGI was over 100 µM in assay [6], 36.9 µM in assay [7], 34.7 µM in [8] and 19.3 µM in [9].

Turning to `Cc1cn(C2CC(N(O)Cc3ccccc3)C(CO)O2)c(=O)[nH]c1=O` (stereo unspecified), the TGI in [2], in assay [3], in [5], in [6], in assay [7] and in assay [8] was over 100 µM in each case. Also, the TGI in [9] is over 100 µM.

For `N#C/C(=C\c1ccc(O)c(O)c1)C(N)=O`, the TGI in [1] is over 100 µM; in assay [2], over 100 µM; in [3], over 100 µM; in assay [4] it was over 100 µM; in assay [5], 51.6 µM; in assay [6], over 100 µM. In addition, the TGI in [7] and in [8] was over 100 µM in each case.

On to `COc1cc2c(cc1OC)C(O)[C@H](Br)C(C)(C)O2` (stereo partly specified), for which the TGI in [1], in assay [2], in assay [3], in assay [5], in [6] and in [7] was over 100 µM each time. The TGI in assay [8] and in [9] was over 100 µM each time.

As to `Cc1ccc(C2CC(c3ccco3)=NN2c2ccccc2)o1` (stereo unspecified), the TGI in assay [1], in assay [2], in [3], in [5], in assay [6] and in [7] was over 100 µM throughout. The TGI in assay [8] and in assay [9] was over 100 µM each time.

Take `C=CCn1c(=O)n(CC=C)c(=O)n(CC=C)c1=O`: the TGI in assay [1], in assay [2], in assay [3], in [5], in assay [6] and in [7] was over 100 µM throughout. The compound further showed a TGI in assay [8] of over 100 µM.

For `CCN1CCN(c2ccc(Nc3ccnc4ccc5nn(C)nc5c34)cc2)CC1`, the TGI in assay [2] is 26.4 µM; in assay [3] it was over 100 µM; in [4] it was 29 µM; in assay [5], 22.5 µM; in assay [6] it was 39.5 µM; in assay [8], 17.2 µM. In assay [9], the TGI is over 100 µM.

For `O=C(C[n+]1ccccc1)NNC(=O)/C(=C/c1ccc2c(c1)OCO2)NC(=O)c1ccccc1`, the TGI in assay [1] was over 100 µM; in assay [2], over 100 µM; in assay [3] it was 63 µM; in assay [4], over 100 µM; in assay [5], over 83.9 µM; in assay [6], over 100 µM. Further, the TGI in [7] is over 100 µM; in assay [8], 98.3 µM; in assay [9], 36.6 µM.

`CCCCCC(C[N+]1(C)CCOCC1)C(=O)/C=C/c1ccccc1` (stereo unspecified): the TGI stood at 29.5 µM in [1]; 69.2 µM in assay [2]; 8.59 µM in [3]; 32.1 µM in assay [4]; 28.2 µM in [5]; 40.1 µM in [6]. Also, the TGI in assay [7] is 38.2 µM; in assay [8], over 61.5 µM; in assay [9], 39.1 µM.

In the case of `COc1c(C)c2c(c(C)c1Cl)Oc1c(C=O)c(O)c(Cl)c(C)c1C(=O)O2`, the TGI was 93.7 µM in assay [2]; over 100 µM in [3]; over 100 µM in [4]; 83.8 µM in [6]; 46.2 µM in assay [7]; over 100 µM in assay [8]. In addition, the TGI in assay [9] was determined as 89.4 µM.

Take `Clc1ccc(-c2c(C3=NCCN3)nnn2-c2ccc(Cl)cc2)cc1`: the TGI was 26.1 µM in [1]; over 100 µM in [2]; 38.8 µM in assay [3]; over 100 µM in assay [4]; 75.8 µM in [5]; over 100 µM in assay [6]. Moreover, the TGI is over 100 µM in assay [7], over 100 µM in [8] and 35.1 µM in assay [9].

In the case of `CNC(=S)N/N=C(C)\C(=N/NC(=S)NC)c1ccccc1`, the TGI in assay [2], in assay [11], in assay [12], in [4], in assay [5] and in assay [6] was over 100 µM each time. Also, the TGI in [7] and in [8] was over 100 µM each time.
